The record followed here is EP3907227A1, “TRILOBINE DERIVATIVES AND THEIR USE THEREOF IN THE TREATMENT OF MALARIA” (Institut Pasteur, priority 2020, dated 2021).

Where two headings read alike, the source gives them in different places.

One test concerns Strain 5150. Briefly: Inhibition of proliferation of multi-resistant field isolates, asynchronous asexual stages, SYBR-green assay. Type of test: cell-based, P. falciparum. As to conditions: Plasmodium falciparum, read-out: IC50 nM Strain 5150 mean*. The protocol: (§1) Compounds 63 and 84 were evaluated regarding the inhibition of the proliferation of multi-resistant field isolates adapted to culture. A panel of four Cambodian strains bearing different molecular markers of resistance were selected: 3D7: Laboratory strain, drug-sensitive, 5150: Cambodian isolate resistant to Chloroquine and Pyrimethamine, 6591: Cambodian isolate resistant to Chloroquine, Pyrimethamine, 5248: Cambodian isolate resistant to Chloroquine, Pyrimethamine, Mefloquine and Artemisinin, 6320: Cambodian isolate resistant to Chloroquine, Pyrimethamine, Piperaquine and Artemisinin.
(§2) IC50 were obtained against asynchronous asexual stages using SYBR-green assay after 72h of incubation with a serial dilution of the compounds. Data represents the mean and SD of 3 independent experiments ran in triplicates. Table 2 illustrates mean IC50 values and their standard deviation in nanomolar.

The next test has as its system Strain 5248. Described as above. Type of test: cell-based, P. falciparum. The conditions noted are these: Plasmodium falciparum, read-out: IC50 nM Strain 5248 mean*. The method, then: as §1, §2
A further test has as its system Strain 6320. The test is described as above. Type of test: cell-based, P. falciparum. As to conditions: Plasmodium falciparum, read-out: IC50 nM Strain 6320 mean*. The method, then:
as §1, §2

A further test relates to Strain 6591. The test is described as above. Type of test: cell-based, P. falciparum. The conditions noted are these: Plasmodium falciparum, read-out: IC50 nM Strain 6591 mean*. The method, then: as §1, §2
The next test has as its system Lab. Strain 3D7. Briefly: Inhibition of proliferation, asynchronous asexual stages, SYBR-green assay, laboratory strain. Type of test: cell-based, P. falciparum. The conditions noted are these: Plasmodium falciparum, read-out: IC50 nM Lab. Strain 3D7 mean*. The method, then: as §1, §2
Test [1] relates to P. falciparum NF54 (drug-sensitive line). Briefly: Inhibition of proliferation of asynchronous asexual cultures (SYBR Green I based assay, 72h). Type of test: cell-based. The conditions noted are these: for activity at 5 µM: first screen at 5µM in duplicate, 72h, NF54, read-out: % survival @5uM. The protocol: Compounds were provided at a concentration of 10 mM in DMSO.
P. falciparum parasite are cultured using standard protocol (Trager and Jensen, Science 1976, 193(4254), 673-675). Briefly, parasites are cultured at 4% hematocrit (O+ human blood, Etablissement Français du Sang, France) in RPMI1640 complemented with 0.1% Albumax I, HEPES buffer, hypoxanthine, and gentamycin. They are incubated at 37°C under an atmosphere of 5% CO2 and 5% O2.
Compounds of the invention were assayed for a first screen at 5µM in duplicate against asynchronous asexual cultures of P. falciparum NF54 (drug-sensitive line) containing mostly rings (2% hematocrit. 0.5% starting parasitemia). Plates were incubated for 72h at 37°C under a reduced oxygen atmosphere. Parasite growth was assessed using the SYBR Green I based assay.
IC50 were determined using Graphpad Prism 6 software. Dihydroartemisinin (starting concentration 50nM) and DMSO were used as positive and negative controls.

A further test deals with Parasites. The test is described as follows: Parasite reduction rate (time needed to kill the parasites). As to conditions: survival curves, duration of treatment versus log viable parasites, Figure 3. Type of test: cell-based. The method, then: Parasites are incubated (see for example Sanz et al. PLoS ONE 7, e30949 (2012)) with a compound of the invention (or a reference) for different time-windows, washed, and diluted serially in 96-well plates in fresh red blood cells. Parasites are kept in culture for 3 to 4 weeks, when growth is assessed to evaluate the number of parasites that survive-correlated to the number of wells where growth is found. Survival curves are obtained by plotting the duration of treatment versus the log of the number of viable parasites (figure 3).

The mark [2] stands for this setting: Plasmodium falciparum, NF54, 72 h, SYBR Green I, read-out: Malaria CI50.
Setting [3] is: Plasmodium falciparum, NF54, 72h, SYBR Green I, read-out: Malaria CI50.

For `CCN(CC)CCCC(C)Nc1ccnc2cc(Cl)ccc12` (stereo not drawn) [Chloroquine], the IC50 in the test with Strain 5150 (72 h) amounted to 55 nM; in the test with Strain 5248 (72 h) it was 98 nM; with Strain 6320 (72 h) it was 109 nM; in the test with Strain 6591 (72 h) it was 64 nM; in the test on Lab. Strain 3D7 (3D7, 72 h), 13 nM.
As to `COc1ccc2cc1Oc1ccc(cc1)CC1c3c(cc(OC)c4c3Oc3cc5c(cc3O4)CCN(C(=O)Nc3ccncc3)C5C2)CCN1C` (stereo not drawn) [Compound 23], the IC50 in test [1] (setting [2]) was 223 ± 58 nM. Besides, the activity at 5 µM in test [1] (Plasmodium falciparum) stood at 13.4%.
For `COc1ccc2cc1Oc1ccc(cc1)CC1c3c(cc(OC)c4c3Oc3cc5c(cc3O4)CCN(C(=O)Nc3cccnc3)C5C2)CCN1C` (stereo not drawn) [Compound 27] the same measures were 383 ± 173 nM and 12.7%.
In the case of `COc1ccc2cc1Oc1ccc(cc1)CC1c3c(cc(OC)c4c3Oc3cc5c(cc3O4)CCN(C)C5C2)CCN1C(=O)NCc1ccccc1` (stereo not drawn) [Compound 28], in test [1] (setting [2]), the IC50 amounted to 504 ± 134 nM. The activity at 5 µM in test [1] (Plasmodium falciparum) was determined as 14.4%.
As to `COc1ccc2cc1Oc1ccc(cc1)CC1c3c(cc(OC)c4c3Oc3cc5c(cc3O4)CCN(C(=O)NCc3ccncc3)C5C2)CCN1C` (stereo not drawn) [Compound 31], in test [1] (setting [2]), the IC50 was 151 ± 21 nM. Further, the activity at 5 µM in test [1] (Plasmodium falciparum) was 14.8%.
On to `COc1ccc2cc1Oc1ccc(cc1)CC1c3c(cc(OC)c4c3Oc3cc5c(cc3O4)CCN(C)C5C2)CCN1CCOCCOCCO` (stereo not drawn) [Compound 42], for which the IC50 in test [1] (setting [2]) worked out at 437 ± 83 nM. For the same molecule, the activity at 5 µM in test [1] (Plasmodium falciparum) amounted to 12.9%.
For `COc1ccc2cc1Oc1ccc(cc1)CC1c3c(cc(OC)c4c3Oc3cc5c(cc3O4)CCN(CCOCCOCCO)C5C2)CCN1C` (stereo not drawn) [Compound 43], the IC50 in test [1] (setting [2]) was found to be 438 ± 95 nM. Besides, the activity at 5 µM in test [1] (Plasmodium falciparum) was 13.3%.
In the case of `COc1ccc2cc1Oc1ccc(cc1)CC1c3c(cc(OC)c4c3Oc3cc5c(cc3O4)CCN(C)C5C2)CCN1CCCN(C)C` (stereo not drawn) [Compound 46], in test [1] (setting [2]), the IC50 stood at 169 ± 10 nM. The activity at 5 µM in test [1] (Plasmodium falciparum) came to 14.2%.
Consider `COc1ccc2cc1Oc1ccc(cc1)CC1c3c(cc(OC)c4c3Oc3cc5c(cc3O4)CCN(C)C5C2)CCN1CC(O)CO` (stereo not drawn) [Compound 48], for which, in test [1] (setting [2]), the IC50 was 195 ± 55 nM. In addition, the activity at 5 µM in test [1] (Plasmodium falciparum) worked out at 11.8%.
`COc1ccc2cc1Oc1ccc(cc1)CC1c3c(cc(OC)c4c3Oc3cc5c(cc3O4)CCN(C(=O)NCCN3CCN(C)CC3)C5C2)CCN1C` (stereo not drawn) [Compound 60]: in test [1] (setting [2]), the IC50 came to 227 ± 59 nM. Moreover, the activity at 5 µM in test [1] (Plasmodium falciparum) came out at 15.4%.
For `COc1cc2c3c4c1Oc1cc5c(cc1O4)C(Cc1ccc(OCCCN4CCN(C)CC4)c(c1)Oc1ccc(cc1)CC3N(C)CC2)N(C)CC5` (stereo not drawn) [Compound 68] the same measures were 189 nM and 14.8%.
Take `COc1cc2c3c4c1Oc1cc5c(cc1O4)C(Cc1ccc(OCC4CO4)c(c1)Oc1ccc(cc1)CC3N(C)CC2)N(C)CC5` (stereo not drawn) [Compound 73]: the IC50 in test [1] (setting [2]) worked out at 299 ± 25 nM. For the same molecule, in test [1] (Plasmodium falciparum), the activity at 5 µM was found to be 15.8%.
Take `COc1cc2c3c4c1Oc1cc5c(cc1O4)C(Cc1ccc(OC4CCCN(C)CC4)c(c1)Oc1ccc(cc1)CC3N(C)CC2)N(C)CC5` (stereo not drawn) [Compound 74]: the IC50 in test [1] (setting [2]) was found to be 297 ± 42 nM. Besides, in test [1] (Plasmodium falciparum), the activity at 5 µM was 14.7%.
Consider `COc1cc2c3c4c1Oc1cc5c(cc1O4)C(Cc1ccc(OCCC4CCCN4C)c(c1)Oc1ccc(cc1)CC3N(C)CC2)N(C)CC5` (stereo not drawn) [Compound 75], for which the IC50 in test [1] (setting [2]) came out at 352 ± 54 nM. The activity at 5 µM in test [1] (Plasmodium falciparum) was determined as 14.9%.
On the same counts, the results for `CCN(CC)CCOc1ccc2cc1Oc1ccc(cc1)CC1c3c(cc(OC)c4c3Oc3cc5c(cc3O4)CCN(C)C5C2)CCN1C` (stereo not drawn) [Compound 78] are 331 ± 29 nM and 12.6%.
Consider `COc1cc2c3c4c1Oc1cc5c(cc1O4)C(Cc1ccc(OCCN(C)C)c(c1)Oc1ccc(cc1)CC3N(C)CC2)N(C)CC5` (stereo not drawn) [Compound 82], for which the IC50 in test [1] (setting [2]) worked out at 260 ± 34 nM. In addition, the activity at 5 µM in test [1] (Plasmodium falciparum) worked out at 13.4%.
For `CCN(CC)CCCNC(=O)N1CCc2cc3c4cc2C1Cc1ccc(OC)c(c1)Oc1ccc(cc1)CC1c2c(cc(OC)c(c2O4)O3)CCN1C(=O)NCCCN(CC)CC` (stereo not drawn) [Compound 87] the same measures were 441 ± 67 nM and 11.3%.
As to `CCN(CC)CCCNC(=O)N1CCc2cc3c4cc2C1Cc1ccc(OC)c(c1)Oc1ccc(cc1)CC1c2c(cc(OC)c(c2O4)O3)CCN1C` (stereo not drawn) [Compound 88], the IC50 in test [1] (setting [2]) was determined as 297 ± 31 nM. Also, the activity at 5 µM in test [1] (Plasmodium falciparum) was 14.7%.
For `CCN(CC)CCCNC(=O)N1CCc2cc(OC)c3c4c2C1Cc1ccc(cc1)Oc1cc(ccc1OC)CC1c2cc(c(cc2CCN1C)O3)O4` (stereo not drawn) [Compound 89] the same measures were 428 ± 77 nM and 14.4%.
Take `CN1CCc2cc3c4cc2C1Cc1ccc(O)c(c1)Oc1ccc(cc1)CC1c2c(cc(O)c(c2O4)O3)CCN1C` (stereo not drawn) [Compound 110]: the IC50 in test [1] (setting [3]) was 146 ± 39 nM.
Regarding `CN(C)CCCOc1ccc2cc1Oc1ccc(cc1)CC1c3c(cc(O)c4c3Oc3cc5c(cc3O4)CCN(C)C5C2)CCN1C` (stereo not drawn) [Compound 113], the IC50 in test [1] (setting [2]) amounted to 153 ± 58 nM.
For `COc1cc2c3c4c1Oc1cc5c(cc1O4)C(Cc1ccc(OCCCN(C)C)c(c1)Oc1ccc(cc1)CC3NCC2)N(C)CC5` (stereo not drawn) [Compound 116], the IC50 in test [1] (setting [2]) came to 263 ± 50 nM.
Turning to `Oc1ccc2cc1Oc1ccc(cc1)CC1NCCc3cc(O)c4c(c31)Oc1cc3c(cc1O4)CCNC3C2` (stereo not drawn) [Compound 121], in test [1] (setting [3]), the IC50 stood at 115 ± 55 nM. The “Speed of action (parasite reduction rate)” value in the test with Parasites was “act as fast as dihydroartemisinin (DHA)”.
With `CN1CCc2cc3c4cc2C1Cc1ccc(O)c(c1)Oc1ccc(cc1)CC1NCCc2cc(O)c(c(c21)O4)O3` (stereo not drawn) [Compound 122], the IC50 in test [1] (setting [3]) was 248 ± 58 nM.
With `CN(C)Cc1cc2cc(c1O)Oc1ccc(cc1)CC1c3c(c(CN(C)C)c(O)c4c3Oc3cc5c(cc3O4)CCN(C)C5C2)CCN1C` (stereo not drawn) [Compound 123], in test [1] (setting [2]), the IC50 was found to be 283 ± 155 nM.
Turning to `COc1ccc2cc1Oc1ccc(cc1)C[C@H]1c3c(cc(OC)c4c3Oc3cc5c(cc3O4)CCN(C)[C@H]5C2)CCN1C` [Isotrilobine, reference compound], the IC50 in test [1] (Plasmodium falciparum, NF54, 72 h, same conditions as Table 1 (NF54, 72h), read-out: mean IC50 +/- SD) is 1780 nM.
With `COc1ccc2cc1Oc1ccc(cc1)C[C@@H]1NCCc3cc(OC)c4c(c31)Oc1cc3c(cc1O4)CCN[C@H]3C2` [Nortrilobine, reference compound], the IC50 in test [1] (same conditions as Table 1 (NF54, 72h), read-out: mean IC50 +/- SD) is 1220 ± 130 nM.
On to `Clc1ccc2c(N3CCN(CCCN4CCN(c5ccnc6cc(Cl)ccc56)CC4)CC3)ccnc2c1` [Piperaquine], for which the IC50 is 26 nM in the test on Strain 5150 (72 h); 33 nM with Strain 5248 (72 h); > 200 nM in the test with Strain 6320 (72 h); 34 nM with Strain 6591 (72 h); 41 nM with Lab. Strain 3D7 (3D7, 72 h).
In the case of `CCc1nc(N)nc(N)c1-c1ccc(Cl)cc1` [Pyrimethamine], the IC50 was > 5000 nM in the test on Strain 5150 (72h, Cambodian isolate resistant to Chloroquine and Pyrimethamine, mean of three replicates); > 5000 nM in the test with Strain 5248 (72h, Cambodian isolate resistant to Chloroquine, Pyrimethamine, Mefloquine and Artemisinin, mean of three replicates); > 5000 nM with Strain 6320 (72h, Cambodian isolate resistant to Chloroquine, Pyrimethamine, Piperaquine and Artemisinin, mean of three replicates); > 5000 nM with Strain 6591 (72h, Cambodian isolate resistant to Chloroquine, Pyrimethamine, mean of three replicates); 30 nM in the test with Lab. Strain 3D7 (3D7, 72h, laboratory strain, drug-sensitive, mean of three replicates).
